Measured values as given in patent US8703754B2, “6-amino-2-{[(1S)-1-methylbutyl]oxy}-9-[5-(1-piperidinyl)-7,9-dihydro-8H-purin-8-one maleate” (GlaxoSmithKline LLC, priority 2010, dated 2014).

Assays:
[1] = Stability testing under ICH Q1A(R2) and Q1B conditions; assay type: physicochemical; conditions: ICH Q1A(R2) stability and Q1B photostability conditions
[2] = tested on: Interferon-α; assay: Induction of Interferon-α following intranasal dosing in the mouse; assay type: in vivo; conditions: female BALB/c mice, 2 hours after dosing, ELISA
Description: Assay for the Induction of Interferon-α Following Intranasal Dosing in the Mouse
The compound of Reference Example 1 was dissolved in 0.2% Tween 80 in saline and administered intranasally (5 μL in total between the nostrils) to female BALB/c mice (n=6) under general anaesthesia. Animals were euthanased 2 hours after dosing and a terminal blood sample was taken and serum levels of Interferon-a measured using an ELISA assay.

[3] = tested on: TNF-α; assay: Induction of TNF-α using fresh human PBMCs; assay type: cell-based; conditions: PBMC, 24 hr, relative to 2 μM resiquimod control, read-out: mean pEC50 for induction of TNF-α (converted)
Description: (§1) Assay for the Induction of Interferon-α and TNF-α Using Fresh Human Peripheral Blood Mononuclear Cells (PBMCs)
(§2) 1 μL of test compound was transferred into 96-well tissue culture plates using a Biomek FX. Each compound was assayed in duplicate for each donor. Each plate contained a dilution series of the TLR7/8 agonist resiquimod as standard and Column 11 contained 1 μL of 200 μM resiquimod (giving a 2 μM final concentration, used to define the approximate maximal response to resiquimod).
(§3) Blood samples from two human donors were collected into sodium heparin (10 U/mL). 25 mL volumes of whole blood were overlaid onto 15 mL Histopaque in Leucosep tubes which were centrifuged at 800 g for 20 min and the band at the plasma/histopaque interface carefully removed. The collected cells were centrifuged at 2500 rpm for 10 min and the pellet resuspended in 10 mL of media (RPMI 1640 (Low endotoxin) supplemented with 10% v/v foetal calf serum (FCS, low endotoxin) 100 U/mL penicillin G, 100 μg/mL streptomycin, 10 mM L-glutamine and 1× non-essential amino acids). A 1:20 dilution of the cells was prepared using trypan blue and the cells counted using a haemocytometer.
(§4) Incubation and Assays for Interferon-α and TNF-α

[4] = tested on: Interferon-α; assay: Induction of Interferon-α using fresh human PBMCs; assay type: cell-based; conditions: PBMC, 24 hr, relative to 2 μM resiquimod control, read-out: mean pEC50 for induction of IFN-α (converted)
Description: as §1, §2, §3, §4

[5] = tested on: IL-5; assay: Allergen-driven cytokine assay using fresh human PBMCs from atopic volunteers (IL-5); assay type: cell-based; conditions: 0.04 μM; PBMCs from three allergic donors, 10 ug/mL Timothy Grass antigen, up to 6 days
Description: (§5) Allergen-driven Cytokine Assay Using Fresh Human Peripheral Blood Mononuclear Cells (PBMCs) from Atopic Volunteers
(§6) An assay based on co-culture of atopic human donor derived peripheral blood mononuclear cells (PBMCs) with allergen and test compounds was developed. After 5-6 days culture, cell supernatants were assayed for a range of cytokines.
(§7) Each compound was assayed in triplicate at all concentrations.
(§8) Defibrinated human blood from volunteers known to be allergic to Timothy grass was centrifuged at 2500 rpm for 15 minutes. The upper layer of serum was collected and heat-inactivated at 56° C. for 30 minutes (HI-autologous serum). The lower layer of cells was resuspended in 50 mL PBS (+Ca +Mg), 25 mL diluted blood were overlaid onto 20 mL Lymphoprep in 50 ml tubes then centrifuged at 2500 rpm for 20 minutes at RT. The band at the serum/Lymphoprep interface was carefully removed. The collected cells were washed with PBS and re-suspended at 4×10^6 per mL in growth medium with HI-autologous serum. PBMCs were seeded at 0.4×10^6 cells per well in flat-bottomed 96 well plates in the presence of 10 ug/mL Timothy Grass antigen (Alk Abello) and test compounds at appropriate concentrations in a total volume of 200 μL.
(§9) Incubation and Cytokine Assays
(§10) Plates were incubated at 37° C. in 5% CO2 for up to 6 days. The cell medium from each well was harvested and stored at −20° C. prior to analysis.

[6] = tested on: IL-13; assay: Allergen-driven cytokine assay using fresh human PBMCs from atopic volunteers (IL-13); assay type: cell-based; conditions: 0.04 μM; PBMCs from three allergic donors, 10 ug/mL Timothy Grass antigen, up to 6 days
Description: as §5, §6, §7, §8, §9, §10

[7] = tested on: Interferon-α; assay: Induction of Interferon-α using cryopreserved human PBMCs; assay type: cell-based; conditions: PBMC, 24 hours, normalised to 1 μM resiquimod and DMSO, read-out: mean pEC50 for induction of IFN-α (converted)
Description: Assay for the Induction of Interferon-α Using Cryopreserved Human Peripheral Blood Mononuclear Cells (PBMCs)
Serial 2-fold dilutions with DMSO were prepared and 0.25 μl dispensed into 384-well clear Greiner polypropylene plates.
Blood samples of up to 200 mL were obtained from healthy human donors. Whole blood in 25 mL volumes was overlaid onto 15 mL Ficoll gradients in Leucosep tubes, and centrifuged at 1000 g for 20 min. Cells in the band at the plasma/histopaque interface were carefully removed and washed twice with PBS (centrifuged at 400 g for 5 min to harvest). The final pellet was resuspended in freezing medium (90% Heat-inactivated serum, 10% DMSO) to a cell concentration of 4×10^7 cells/mL. The resuspended cells were then cryopreserved (frozen) using a rate controlled freezer, and stored at −140° C. for up to 4 months.
Incubation and Assay for Interferon-α
Immediately prior to assay, vials of cryopreserved (frozen) PBMCs were thawed rapidly in a water bath at 37° C. A 1:10 dilution of the cells in trypan blue was prepared and counted. […]
A multi-isoform immunoassay was used to quantify IFN-α in PBMC supernatants. […] Following three washes with PBS, 30 μl of ×2 T buffer (MSD) was added to each well and the plate was read on an MSD Sector 6000 plate reader. […]

SMILES	degradation under stability testing [1]	mean serum levels of Interferon-α [2] [pg/mL]	EC50 [3] [nM]	EC50 [4] [nM]	reduction of production of the Th2 cytokine IL-5 compared to the allergen control [5] [%]	reduction of production of the Th2 cytokine IL-13 compared to the allergen control [6] [%]	EC50 [7] [nM]
CCC[C@H](C)Oc1nc(N)c2[nH]c(=O)n(CCCCCN3CCCCC3)c2n1.O=C(O)/C=C\C(=O)O [Example 2, 6-Amino-2-{[(1S)-1-methylbutyl]oxy}-9-[5-(1-piperidinyl)pentyl]-7,9-dihydro-8H-purin-8-one, Maleate Salt]	no significant degradation	–	–	–	–	–	–
CCC[C@H](C)Oc1nc(N)c2[nH]c(=O)n(CCCCCN3CCCCC3)c2n1 [Reference Example 1, 6-Amino-2-{[(1S)-1-methylbutyl]oxy}-9-[5-(1-piperidinyl)pentyl]-7,9-dihydro-8H-purin-8-one]	–	21029	≥ 316	≤ 1	≥ 50	≥ 50	< 5.01
